From patent US4784988A, “Peptides correlated to lysozyme” (Spa Societa' Prodotti Antibiotici S.p.A., priority 1985, dated 1988)
Where no end group is shown, it is not given here.

Columns and labels:
[1] = test system: herpes simplex Type 1; assay: herpes simplex virus plaque formation on Vero cell monolayers; type: cell-based; settings: herpes simplex Type 1, Vero cells, 72 hours' incubation
Procedure: Yet other example, the mixture and the peptides of the present invention resulted active in an antiviral sense in numerous cases. They were submitted to various tests to verify their influence on the capacity of the herpes simplex virus to infect and form plaques on monolayer cell cultures. To this purpose, a viral strain of herpes simplex Type 1 at suitable concentration was added to monolayers of Vero cells (Flow). After being in contact for 1 hour, the virus was removed and the monolayer washed and then covered with fresh culture medium […] (Flow), adding at the end suitable quantities of the substance under test. After 72 hours' incubation, the plates were coloured with neutral red and the visible plaques counted. […] Similar results were obtained with a peptide fraction isolated in an analogous manner after hydrolysis of lysozyme with trypsin and chymotrypsin. Even more surprising results were obtained with peptides such as (I) or (III) which resulted capable of inducing analogous reductions in the viral plaque-forming units at considerably lower concentrations (0.1-1 mg/ml).

[2] = test system: cell colony-forming capacity; type: cell-based
[3] = test system: hyperalgesia of the paw; assay: Randall-Selitto test, painful threshold on compression of the paw made hyperalgesic with brewer's yeast; type: in vivo, rats; settings: rat, brewer's yeast 10 mg/rat, product injected in the paw, after 3 hours, vs irritant alone
Description: With regard to the biological activity of the peptide mixtures obtained by enzymatic hydrolysis of lysozyme, like many of the peptides isolated at the pure state and/or reproduced through synthesis, it is observed, as previously reported, that they lack the bacteriolytic activity typical of the integral lysozyme structure, whereas they present important pharmacological and therapeutic properties. It was therefore possible for example to evidence a marked analgesic activity of numerous peptides, by testing their anti-nociceptive effects on laboratory animals using the well-known Randall-Selitto method.
In groups of 5-10 rats, hyperalgesia of the paw is induced by administering an irritant agent, for example brewer's yeast (10 mg/rat), into the planter aponeurosis and at the same time injecting the product under test at different doses. One group of rats is treated with the irritant agent alone. At intervals, in particular after 3 hours, the painful threshold on compression of the edematous paw is measured, i.e. the minimum pressure (in g) causing the sudden withdrawal of the paw of the animal.
The results are expressed as percentage increase in the mean painful threshold compared to the paw treated with the algogenic agent alone (without the drug). As an example, the data relative to the peptide mixture denominated "Fraction P.2" of chromatographic origin (See Scheme 1) are reported, as well as the individual peptides (I), (II) and (III).

[4] = type: physicochemical
Procedure: Having obtained the desired peptide sequence, it is then necessary to proceed with the splitting from the solid support and deprotection of the residual functional groups, which is carried out by action of gaseous hydrobromic acid on the peptide-resin suspension, working in trifluoroacetic acid and in presence of adequate quantities of anisole.

Substance | inhibition of the viral capacity to form plaques ([1]; 5 mg/ml) | cytotoxic effects (cell colony-forming capacity) [2] | concentration inducing analogous reductions in the viral plaque-forming units [1] | Δ% of the algogenic threshold ([3]; dose 1 mg/rat) | Δ% of the algogenic threshold ([3]; dose 2 mg/rat) | Δ% of the algogenic threshold ([3]; dose 4 mg/rat) | solubility in water [4] | Δ% of the algogenic threshold ([3]; dose 0.5 mg/rat) | Δ% of the algogenic threshold ([3]; dose 0.75 mg/rat)
lysozyme: small globular protein of 129 amino acid residues extracted from hen egg-white | 75% |  |  |  |  |  |  |  | 
NTQATNR [peptide (III)] |  | devoid of cytotoxic effects | 0.1-1 mg/ml | 30% | 60% | 100% |  |  | 
NTDGSTDY [peptide (II)] |  |  |  | 90% |  |  | very soluble in water | 30% | 60%
NTQATNRNTDGSTDY [peptide (I)] |  | devoid of cytotoxic effects | 0.1-1 mg/ml |  | 120% |  |  |  | 
